In patent US5608091A, “Quinizarin compound, method for production thereof, and use therefor” (Nippon Shokubai Co., Ltd., priority 1993, dated 1997):

Key:
Format in all cases: physicochemical
[1] = Visible absorption spectrum (λmax, ε); conditions: in chloroform; for ε: at λ max, in M-1 cm-1 (unit assumed)
[2] = Solubility in toluene and methyl ethyl ketone, three-point scale
Source text: In these tables, the solubility is rated on the three-point scale, wherein Δ stands for a solubility of less than 1% by weight, .largecircle. for a solubility in the approximate range of 1 to 3% by weight, and .circleincircle. for a solubility of not less than 3% by weight.

Color tone of the dye = conditions: Tables 1-9

SMILES	λ max [1] [nm]	ε [1]	Color tone (Color tone of the dye)	Solubility in methyl ethyl ketone [2]	Solubility in toluene [2]
O=C1c2c(O)ccc(O)c2C(=O)c2c(F)c(Nc3c(Cl)cccc3Cl)c(Nc3c(Cl)cccc3Cl)c(F)c21 [(138)]	630	22300	Blue	.largecircle. (a solubility in the approximate range of 1 to 3% by weight)	.largecircle. (a solubility in the approximate range of 1 to 3% by weight)
CCCCNc1c(F)c2c(c(F)c1Nc1cccc(C(=O)OCC)c1)C(=O)c1c(O)ccc(O)c1C2=O [(227)]	661	21000	Cyan	.largecircle. (a solubility in the approximate range of 1 to 3% by weight)	.largecircle. (a solubility in the approximate range of 1 to 3% by weight)
CCCCNc1c(F)c2c(c(F)c1Nc1ccc(OC)cc1)C(=O)c1c(O)ccc(O)c1C2=O [(228)]	666	22800	Cyan	.largecircle. (a solubility in the approximate range of 1 to 3% by weight)	.largecircle. (a solubility in the approximate range of 1 to 3% by weight)
CCCCNc1c(F)c2c(c(NCCCC)c1NCCCC)C(=O)c1c(O)ccc(O)c1C2=O [(248)]	614	14900	Blue	.largecircle. (a solubility in the approximate range of 1 to 3% by weight)	.largecircle. (a solubility in the approximate range of 1 to 3% by weight)
O=C(O)c1c(F)c(F)c(Sc2c(F)c3c(c(F)c2Sc2c(F)c(F)c(C(=O)O)c(F)c2F)C(=O)c2c(O)ccc(O)c2C3=O)c(F)c1F [(299)]	510	12600	Cinnabar	Δ (a solubility of less than 1% by weight)	Δ (a solubility of less than 1% by weight)

Further lines, with some results ahead:

λ max [1] [nm]	ε [1]	Color tone (Color tone of the dye)	SMILES	Solubility in methyl ethyl ketone [2]	Solubility in toluene [2]
651	13400	Cyan	COc1cccc(Nc2c(F)c3c(c(F)c2Nc2cccc(OC)c2)C(=O)c2c(O)ccc(O)c2C3=O)c1 [(133)]	.largecircle. (a solubility in the approximate range of 1 to 3% by weight)	.largecircle. (a solubility in the approximate range of 1 to 3% by weight)
666	15300	Cyan	CCCCNc1c(F)c2c(c(F)c1Nc1ccccc1)C(=O)c1c(O)ccc(O)c1C2=O [(229)]	.largecircle. (a solubility in the approximate range of 1 to 3% by weight)	.largecircle. (a solubility in the approximate range of 1 to 3% by weight)
542	12300	Purple	Nc1c(Sc2ccccc2)c(Sc2ccccc2)c(F)c2c1C(=O)c1c(O)ccc(O)c1C2=O [(296)]	.largecircle. (a solubility in the approximate range of 1 to 3% by weight)	.largecircle. (a solubility in the approximate range of 1 to 3% by weight)
692	15900	Cyan	O=C1c2c(O)ccc(O)c2C(=O)c2c(Nc3ccccc3)c(Sc3ccccc3)c(Sc3ccccc3)c(Nc3ccccc3)c21 [(297)]	.largecircle. (a solubility in the approximate range of 1 to 3% by weight)	.largecircle. (a solubility in the approximate range of 1 to 3% by weight)
489	12700	Orange	O=C1c2c(O)ccc(O)c2C(=O)c2c(F)c(Sc3ccccc3)c(Sc3ccccc3)c(F)c21 [(298)]	.largecircle. (a solubility in the approximate range of 1 to 3% by weight)	.circleincircle. (a solubility of not less than 3% by weight)
